# Measured values taken from ChEMBL document CHEMBL3885861, “Open TG-GATES”.
# Organism: Rattus norvegicus
# Assay: Open TG-GATES - Regimen: Single
# Format: toxicity, organism-based, Sprague-Dawley
# Set-up: regimen Single, gender Male, age 6 weeks
# Conditions: in vivo, po, 0 mg/kg, route gavage, dose level Control; for APTT / Bas / Eos / Fbg / Hb / Ht / MCH / MCHC / MCV / Mono / PT / Plat / RBC / Ret / WBC: tissue Blood; for ALP / ALT / CRE / DBIL / GLC / IP / K / LDH / Na / PL / RALB / TBIL / TC / TG / TP / gamma-GTP: tissue Plasma
compound,measurement,setting,value
CCN(CC)C(=S)SSC(=S)N(CC)CC,TERMINAL_BW,3 h,212.4 g
same,APTT,3 h,21.9 s
same,Bas,3 h,0%
same,Eos,3 h,0.6%
same,Fbg,3 h,285.8 mg/dL
same,Hb,3 h,13.2 g/dL
same,Ht,3 h,40.8%
same,MCH,3 h,20.6 pg
same,MCHC,3 h,32.3%
same,MCV,3 h,63.8 fL
same,Mono,3 h,2.6%
same,PT,3 h,16.5 s
same,Plat,3 h,98.3 x10_4/uL
same,RBC,3 h,639.2 x10_4/ul
same,Ret,3 h,7.6%
same,WBC,3 h,97.5 x10_2/uL
same,ALP,3 h,1602.8 IU/L
same,ALT,3 h,48 IU/L
same,CRE,3 h,0.2 mg/dL
same,DBIL,3 h,0 mg/dL
same,GLC,3 h,188.6 mg/dL
same,IP,3 h,7.8 mg/dL
same,K,3 h,4.2 meq/L
same,LDH,3 h,236.6 IU/L
same,Na,3 h,141.4 meq/L
same,PL,3 h,138 mg/dL
same,RALB,3 h,3 g/dL
same,TBIL,3 h,0.006 mg/dL
same,TC,3 h,73.6 mg/dL
same,TG,3 h,72.4 mg/dL
same,TP,3 h,5.5 g/dL
same,gamma-GTP,3 h,1 IU/L
same,TERMINAL_BW,6 h,208.9 g
same,APTT,6 h,21.8 s
same,Bas,6 h,0%
same,Eos,6 h,0.8%
same,Fbg,6 h,286.4 mg/dL
same,Hb,6 h,12.8 g/dL
same,Ht,6 h,39.4%
same,MCH,6 h,20.1 pg
same,MCHC,6 h,32.4%
same,MCV,6 h,62 fL
same,Mono,6 h,2%
same,PT,6 h,16.6 s
same,Plat,6 h,119.2 x10_4/uL
same,RBC,6 h,635.6 x10_4/ul
same,Ret,6 h,7.1%
same,WBC,6 h,102.5 x10_2/uL
same,ALP,6 h,1209.4 IU/L
same,ALT,6 h,38.8 IU/L
same,CRE,6 h,0.1 mg/dL
same,DBIL,6 h,0 mg/dL
same,GLC,6 h,184 mg/dL
same,IP,6 h,9.5 mg/dL
same,K,6 h,4.4 meq/L
same,LDH,6 h,188 IU/L
same,Na,6 h,141 meq/L
same,PL,6 h,124.6 mg/dL
same,RALB,6 h,3 g/dL
same,TBIL,6 h,0.004 mg/dL
same,TC,6 h,71.8 mg/dL
same,TG,6 h,56.8 mg/dL
same,TP,6 h,5.3 g/dL
same,gamma-GTP,6 h,1 IU/L
same,TERMINAL_BW,9 h,212.5 g
same,APTT,9 h,23.3 s
same,Bas,9 h,0%
same,Eos,9 h,0.8%
same,Fbg,9 h,297.2 mg/dL
same,Hb,9 h,12.9 g/dL
same,Ht,9 h,39.9%
same,MCH,9 h,20.2 pg
same,MCHC,9 h,32.3%
same,MCV,9 h,62.6 fL
same,Mono,9 h,2.6%
same,PT,9 h,16.4 s
same,Plat,9 h,107.7 x10_4/uL
same,RBC,9 h,638.6 x10_4/ul
same,Ret,9 h,7.1%
same,WBC,9 h,111.4 x10_2/uL
same,ALP,9 h,1326.8 IU/L
same,ALT,9 h,33.6 IU/L
same,CRE,9 h,0.2 mg/dL
same,DBIL,9 h,0.002 mg/dL
same,GLC,9 h,198.8 mg/dL
same,IP,9 h,10 mg/dL
same,K,9 h,4.1 meq/L
same,LDH,9 h,130 IU/L
same,Na,9 h,140.8 meq/L
same,PL,9 h,132.4 mg/dL
same,RALB,9 h,3.1 g/dL
same,TBIL,9 h,0.008 mg/dL
same,TC,9 h,72.6 mg/dL
same,TG,9 h,82.4 mg/dL
same,TP,9 h,5.4 g/dL
same,gamma-GTP,9 h,1 IU/L
same,TERMINAL_BW,24 h,229.8 g
same,APTT,24 h,20.8 s
same,Bas,24 h,0%
same,Eos,24 h,1%
same,Fbg,24 h,278.6 mg/dL
same,Hb,24 h,12.5 g/dL
same,Ht,24 h,38.4%
same,MCH,24 h,20.4 pg
same,MCHC,24 h,32.6%
same,MCV,24 h,62.5 fL
same,Mono,24 h,2.6%
same,PT,24 h,16.4 s
same,Plat,24 h,106.2 x10_4/uL
same,RBC,24 h,613.8 x10_4/ul
same,Ret,24 h,7.5%
same,WBC,24 h,83.8 x10_2/uL
same,ALP,24 h,1487.8 IU/L
same,ALT,24 h,40.4 IU/L
same,CRE,24 h,0.1 mg/dL
same,DBIL,24 h,0 mg/dL
same,GLC,24 h,193.4 mg/dL
same,IP,24 h,7.8 mg/dL
same,K,24 h,4.2 meq/L
same,LDH,24 h,167.6 IU/L
same,Na,24 h,141.2 meq/L
same,RALB,24 h,3 g/dL
same,TBIL,24 h,0.01 mg/dL
same,TC,24 h,78.4 mg/dL
same,TG,24 h,81.6 mg/dL
same,TP,24 h,5.5 g/dL
same,gamma-GTP,24 h,1.8 IU/L
